# ChEMBL document CHEMBL4387782, “A new approach to procyanidins synthesis with potent anti-adipogenic effects” (Bioorg Med Chem Lett, 2019)
# Active and inactive are the calls of the source. The rule behind the calls is not given here.
# Columns and labels:
# [1] = target: T1, Pancreatic triacylglycerol lipase (Sus scrofa, UniProt P00591); assay: Inhibition of porcine pancreatic lipase using pNPB as substrate measured after 30 mins
# T1 sequence (P00591 whole entry): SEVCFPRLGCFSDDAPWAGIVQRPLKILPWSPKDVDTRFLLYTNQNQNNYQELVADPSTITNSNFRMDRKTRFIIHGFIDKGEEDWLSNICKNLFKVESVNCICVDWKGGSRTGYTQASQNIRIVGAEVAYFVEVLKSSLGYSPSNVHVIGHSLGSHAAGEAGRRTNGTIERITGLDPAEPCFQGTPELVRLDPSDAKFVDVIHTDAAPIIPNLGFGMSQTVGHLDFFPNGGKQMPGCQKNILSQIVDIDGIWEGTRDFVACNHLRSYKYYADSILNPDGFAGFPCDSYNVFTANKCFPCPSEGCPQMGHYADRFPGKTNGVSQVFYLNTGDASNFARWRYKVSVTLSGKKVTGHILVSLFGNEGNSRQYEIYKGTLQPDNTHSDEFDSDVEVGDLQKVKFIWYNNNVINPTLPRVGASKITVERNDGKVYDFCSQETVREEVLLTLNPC
# [2] = Cytotoxicity against mouse 3T3L1 cells assessed as reduction in cell viability after 48 hrs by sulforhodamine B assay; format: cell-based; settings: 3T3-L1 cells
# 3T3-L1 [3] = assay: Cytotoxicity against mouse 3T3L1 cells assessed as effect on cell viability up to 50 uM by MTT assay; format: cell-based
# 3T3-L1 [4] = assay: Inhibition of cell differentiation in mouse 3T3L1 cells assessed as reduction in pre-adipocyte differentiation into matured adipocytes at 2.5 to 10 uM incubated for 8 days in differentiation media by oil red O staining based method; format: functional
# [5] = target: T1, Pancreatic triacylglycerol lipase; assay: Inhibition of porcine pancreatic lipase using pNPB as substrate measured after 30 mins using plasma treated sample
# 3T3-L1 [6] = assay: Anti-adipogenic activity in mouse 3T3L1 preadipocytes assessed as decrease in lipid accumulation at 10 uM incubated for 8 days in differentiation media by Oil Red O staining based ELISA relative to control; format: functional; parameters: scale not given: the % may be the effect or the level left
# 3T3-L1 [7] = assay: Anti-adipogenic activity in mouse 3T3L1 preadipocytes assessed as decrease in lipid accumulation at 5 uM incubated for 8 days in differentiation media by Oil Red O staining based ELISA relative to control; format: functional; parameters: scale not given: the % may be the effect or the level left
# 3T3-L1 [8] = assay: Anti-adipogenic activity in mouse 3T3L1 preadipocytes assessed as decrease in lipid accumulation at 2.5 uM incubated for 8 days in differentiation media by Oil Red O staining based ELISA relative to control; format: functional; parameters: scale not given: the % may be the effect or the level left
Structure (SMILES),IC50 [1] [µM],MNTC at 48 h [2] [µM],Activity (3T3-L1 [3]),inhibition (3T3-L1 [4]),IC50 [5] [µM],Activity (3T3-L1 [6]) [%],Activity (3T3-L1 [7]) [%],Activity (3T3-L1 [8]) [%]
Oc1cc(O)c2c(c1)O[C@H](c1ccc(O)c(O)c1)[C@@H](O)C2 [CIANIDANOL],> 500,–,–,–,340,–,–,–
Oc1ccc([C@H]2Oc3c(Cc4c(O)cc(O)c5c4O[C@H](c4ccc(O)c(O)c4)[C@@H](O)C5)c(O)cc(O)c3C[C@@H]2O)cc1O,110,50,Non-Toxic,–,–,–,–,–
Oc1ccc([C@H]2Oc3c(Cc4c(O)c(Cc5c(O)cc(O)c6c5O[C@H](c5ccc(O)c(O)c5)[C@@H](O)C6)c5c(c4O)C[C@H](O)[C@@H](c4ccc(O)c(O)c4)O5)c(O)cc(O)c3C[C@@H]2O)cc1O,45.9,50,Non-Toxic,Active,–,–,–,–

# Further compounds by falling IC50 [1], results first:
IC50 [1] [µM],Structure (SMILES),MNTC at 48 h [2] [µM],Activity (3T3-L1 [3]),inhibition (3T3-L1 [4]),IC50 [5] [µM],Activity (3T3-L1 [6]) [%],Activity (3T3-L1 [7]) [%],Activity (3T3-L1 [8]) [%]
102,Oc1ccc([C@H]2Oc3cc(O)c(Cc4c(O)cc(O)c5c4O[C@H](c4ccc(O)c(O)c4)[C@@H](O)C5)c(O)c3C[C@@H]2O)cc1O,50,Non-Toxic,–,–,–,–,–
78.7,Oc1ccc([C@H]2Oc3cc(O)c(Cc4c(O)cc5c(c4O)C[C@H](O)[C@@H](c4ccc(O)c(O)c4)O5)c(O)c3C[C@@H]2O)cc1O,50,Non-Toxic,Active,–,–,–,–
18.8,Oc1ccc([C@H]2Oc3c(Cc4c(O)c(Cc5c(O)c(Cc6c(O)cc(O)c7c6O[C@H](c6ccc(O)c(O)c6)[C@@H](O)C7)c(O)c6c5O[C@H](c5ccc(O)c(O)c5)[C@@H](O)C6)c5c(c4O)C[C@H](O)[C@@H](c4ccc(O)c(O)c4)O5)c(O)cc(O)c3C[C@@H]2O)cc1O,50,Non-Toxic,Active,–,67.2,52.1,40.1
